Source: patent publication US10450340B2, “3′-deamino-3′-(2″-pyrroline-1″-yl)-5-imino-13-deoxyanthracyclines and methods of preparation” (priority 2017, dated 2019)
Where two headings read alike, the source gives them in different places. Marks after values point to notes of the source that are not given here.

Experiments:
[1] = test system: T47D breast ductal carcinoma cells; assay: Antiproliferative activity, resazurin assay, T47D; format: cell-based; conditions: Homo sapiens, read-out: Drug IC50 Values
Experimental: (§1) The growth inhibitory potency of 2-pyrrolino-5-imino-13-deoxydoxorubicin IV, 5-imino-13-deoxydoxorubicin III, and doxorubicin I against several cancer cell lines was evaluated using the resazurin fluorescence assay. The growth inhibitory potency was measured as the inhibitory concentration of a compound required to inhibit cell growth by 50% (IC50). The cancer cells were seeded into 96-well plates (0.5-1×10^4 cells/well) with appropriate media, incubated with drug for 48 hours, and then treated with resazurin (final concentration, 0.01%), a non-fluorescent blue dye, for 24 hours. The fluorescence (Ex560 nm/Em590 nm) was recorded using a BioTek SynergyHT multiwell plate fluorimeter. Healthy cells metabolize resazurin to resorufin, a fluorescent pink dye. Thus, fluorescence is a proxy for cell viability and used to determine the effect of cytotoxic agents on cell cultures. […] The activity of 2-pyrrolino-5-imino-13-deoxydoxorubicin IV was also greater than that of doxorubicin I, with IC50 values that were, on average, lower than those of doxorubicin I.

[2] = test system: HT1080 fibrosarcoma cells; assay: cells; format: cell-based; conditions: for IC50 / IC10: 48 hours; for IC10: concentration inhibiting cell growth by 10%
Experimental: A fibrosarcoma cell line, HT1080, was used to measure the IC50's and IC10's (the inhibitory concentration of a compound required to inhibit cell growth by 10%) of Compound IV and Compound III, as described in Example 2. An IC50 concentration represents a therapeutic amount of compound. […] The cells were passaged and seeded at 5,000 cells/well on 96-well plates and the plates were incubated for 24 hours. After incubation, the media was changed and the IC50's and IC10's of compound IV and compound III were measured after 48 hours of incubation. Then, the IC50's of compound IV in the presence of compound III at an IC10 concentration and of compound III in the presence of compound IV at an IC10 concentration were measured after 48 hours of incubation. After the incubations, […] of 0.1% AlamarBlue in 1×PBS was added to each well. The plates were then incubated for a final 24 h. The plates were read on a microplate reader with an ex/em of 485/528.

MES-SA/MX2 cells = assay: Antiproliferative activity, doxorubicin resistant uterine fibrosarcoma; format: cell-based, human; conditions: for IC50: Homo sapiens, read-out: Drug IC50 Values; for potency in the resistant fibrosarcoma strain compared to the sensitive strain (times less potent): MES-SA/MX2 versus MES-SA
Experimental: as §1
(§2) The compounds were further tested against a uterine fibrosarcoma cell line, MES-SA, sensitive to doxorubicin (compound I), and against a uterine fibrosarcoma cell line MES-SA/MX2 resistant to doxorubicin.

[3] = test system: RD rhabdomyosarcoma cells; assay: Antiproliferative activity, resazurin assay, RD; format: cell-based; conditions: Homo sapiens, Rhabdomyosarcoma cell, read-out: Drug IC50 Values
Experimental: as §1

human cancer cell lines = assay: Antiproliferative activity, average over the five cancer cell lines of Table 1; format: cell-based; conditions: for times more potent against cancer cells than a normal non-cancer cell line, on average: HADF IC50 / average cancer cell IC50; for IC50: Homo sapiens, read-out: Average Drug IC50 Values
Experimental: as §1
Even more unexpected and not predicted was that the selectivity of compound IV for cancer cells versus normal cells is shown to be 40 times greater compared to compound I (doxorubicin).

[4] = test system: HeLa cervical adenocarcinoma cells; assay: Antiproliferative activity, resazurin assay, HeLa; format: cell-based; conditions: Homo sapiens, read-out: Drug IC50 Values
Experimental: as §1

HT1080-luc tumors = assay: Primary tumor growth model of sarcoma in SCID mice; format: in vivo; conditions: for Averge tumor weight / tumor weight reduced / tumor progression by in vivo bioluminescent imaging: day 20; for Averge tumor weight: SCID mice; for tumor weight reduced: 2.4 mg/kg, relative to PBS; for tumor progression by in vivo bioluminescent imaging: relative to PBS-only treatment
Experimental: To assess in vivo drug activity against a primary tumor growth model of sarcoma, an experiment was conducted using commercially available human HT1080 fibrosarcoma cells engineered to express luciferase (HT1080-luc; PerkinElmer). The inhibitory potency of Compound III and Compound IV against HT1080-luc was measured in vitro by the methods described in Example 2. […] HT1080-luc tumors were initiated in 6 week old female SCID mice (Harlan) by orthotopic subcutaneous injection of 1×10^6 cells in each flank. After allowing the tumors to establish for 6 days, mice were randomized to one of three treatment groups and treated three times per week by intraperitoneal injection with compound IV or compound III, 2.4 mg/kg in physiological buffered saline (PBS), or vehicle (PBS). […] At day 20 tumor weight was reduced 53% with compound IV while reduced only 36% with compound III at the same given dose. […] This is in contrast to 2-pyrrolinodoxorubicin which can be lethal at its effective dose range.

[5] = test system: HADF human adult dermal fibroblasts; assay: Cytotoxicity against normal cell line, resazurin assay; format: cell-based; conditions: for IC50: Fibroblast, read-out: Drug IC50 Values
Experimental: as §1
The compounds were also tested against a normal non-cancer cell line, normal human fibroblasts (HADF).

MES-SA cells = assay: Antiproliferative activity, doxorubicin sensitive uterine fibrosarcoma; format: cell-based; conditions: Homo sapiens, read-out: Drug IC50 Values
Experimental: as §1, §2

advanced tumors = conditions: patients with advanced tumors; cited from earlier work
GCT histiocytoma cells = assay: Antiproliferative activity, resazurin assay, GCT; format: cell-based; conditions: Homo sapiens, read-out: Drug IC50 Values
Experimental: as §1

SW-872 liposarcoma cells = assay: Antiproliferative activity, resazurin assay, SW-872; format: cell-based; conditions: Homo sapiens, read-out: Drug IC50 Values
Experimental: as §1

[6] = test system: HT1080-luc fibrosarcoma cells; assay: Inhibitory potency against HT1080-luc in vitro; format: cell-based; conditions: Homo sapiens, read-out: IC50±SEM
Experimental: The growth inhibitory potency of 2-pyrrolino-5-imino-13-deoxydoxorubicin IV, 5-imino-13-deoxydoxorubicin III, and doxorubicin I against several cancer cell lines was evaluated using the resazurin fluorescence assay. The growth inhibitory potency was measured as the inhibitory concentration of a compound required to inhibit cell growth by 50% (IC50). The cancer cells were seeded into 96-well plates (0.5-1×10^4 cells/well) with appropriate media, incubated with drug for 48 hours, and then treated with resazurin (final concentration, 0.01%), a non-fluorescent blue dye, for 24 hours. The fluorescence (Ex560 nm/Em590 nm) was recorded using a BioTek SynergyHT multiwell plate fluorimeter. Healthy cells metabolize resazurin to resorufin, a fluorescent pink dye. Thus, fluorescence is a proxy for cell viability and used to determine the effect of cytotoxic agents on cell cultures. […]
To assess in vivo drug activity against a primary tumor growth model of sarcoma, an experiment was conducted using commercially available human HT1080 fibrosarcoma cells engineered to express luciferase (HT1080-luc; PerkinElmer). The inhibitory potency of Compound III and Compound IV against HT1080-luc was measured in vitro by the methods described in Example 2. […]

[7] = literature; cited from earlier work
topoisomerase II = conditions: compared with doxorubicin; Stepankova et al.; cited from earlier work
[8] = test system: cancer cells versus normal cells; conditions: as reported; cited from earlier work
[9] = T47D breast ductal carcinoma, 48 hours drug, resazurin, mean ±SEM of 3 assays
[10] = MES-SA/MX2 uterine fibrosarcoma (resistant), mean ±SEM of 3 assays
[11] = RD rhabdomyosarcoma, 48 hours drug, resazurin, mean ±SEM of 3 assays
[12] = average of SW-872, RD, GCT, HeLa, T47D
[13] = HeLa cervical adenocarcinoma, 48 hours drug, resazurin, mean ±SEM of 3 assays
[14] = 2.4 mg/kg intraperitoneal three times per week
[15] = HADF normal human adult dermal fibroblasts, resazurin
[16] = MES-SA uterine fibrosarcoma (sensitive), mean ±SEM of 3 assays
[17] = GCT histiocytoma, 48 hours drug, resazurin, mean ±SEM of 3 assays
[18] = SW872, SW-872 liposarcoma, 48 hours drug, resazurin, mean ±SEM of 3 assays

Row | SMILES | IC50 [1, 9] | IC10 ([2]; compound alone, HT1080) | IC50 (MES-SA/MX2 cells; [10]) | IC50 [3, 11] | times more potent against cancer cells than a normal non-cancer cell line, on average (human cancer cell lines) | IC50 (human cancer cell lines; [12]) | IC50 [4, 13] | Averge tumor weight (HT1080-luc tumors; [14]) | tumor weight reduced (HT1080-luc tumors) | tumor progression by in vivo bioluminescent imaging (HT1080-luc tumors) | IC50 [5, 15] | IC50 (MES-SA cells; [16]) | IC50 (GCT histiocytoma cells; [17]) | IC50 (SW-872 liposarcoma cells; [18]) | potency in the resistant fibrosarcoma strain compared to the sensitive strain (times less potent) (MES-SA/MX2 cells) | further results
1 | COc1cccc2c1C(=N)c1c(O)c3c(c(O)c1C2=O)C[C@@](O)(CCO)C[C@@H]3OC1CC(N)C(O)C(C)O1 (stereo partly drawn) [Compound III, 5-imino-13-deoxydoxorubicin] | 18 µM | 5.34 µM | 90 µM | 11.9 ± 3.99 µM | 5.8 times | 10.1 µM | 9.82 ± 0.93 µM | 1.40 g | 36% | not significantly reduced | 58.9 µM | 10.5 ± 1 µM | 3.37 ± 0.35 µM | 7.38 ± 0.45 µM | – | times more potent in the presence of a nontherapeutic amount (IC10) of the other compound [2]: 35 times; IC50 ([2]; Homo sapiens, HT-1080, 48 h, HT1080, read-out: IC50 of compound III in the presence of an IC10 of compound IV): 1.78 µM; IC50 ([2]; Homo sapiens, HT-1080, 48 h, compound alone, HT1080, read-out: IC50): 63.4 µM; IC50 ([2]; compound alone, HT1080, read-out: IC50): 63.7 µM; anticancer activity in Phase I clinical trial (advanced tumors): anticancer activity in a variety of carcinomas, sarcomas, and bladder cancer; tolerability in Phase I clinical trial (advanced tumors): well tolerated with relatively mild toxicity for an anthracycline; IC50 ([6]; HT1080-luc in vitro, methods of Example 2): 10 ± 6.1 µM
2 | COc1cccc2c1C(=N)c1c(O)c3c(c(O)c1C2=O)C[C@@](O)(CCO)C[C@@H]3OC1CC(N2C=CCC2)C(O)C(C)O1 (stereo partly drawn) [Compound IV, 2-pyrrolino-5-imino-13-deoxydoxorubicin] | – | 0.84 µM | – | – | 81 times | – | – | 1.03* g | 53% | reduced significantly statistically | – | – | – | – | about equal in potency | IC50 ([1]; T47D, 48 h): 0.817 ± 0.561 µM; times more potent in the presence of a nontherapeutic amount (IC10) of the other compound ([2]; HT1080, IC50 alone / IC50 in combination): 12 times; IC50 ([2]; Homo sapiens, HT-1080, 48 h, compound alone, HT1080): 12.5 µM; IC50 ([2]; Homo sapiens, HT-1080, 48 h, read-out: IC50 of compound IV in the presence of an IC10 of compound III, HT1080): 1 µM; IC50 ([2]; read-out: IC50 of compound IV in the presence of an IC10 of compound III, HT1080): 1.01 µM; IC50 (MES-SA/MX2 cells; MES-SA): 0.66 ± 0.003 µM; times more potent than compound I in an anthracycline resistant cell line (MES-SA/MX2 cells; MES-SA/MX2): 12 times; IC50 ([3]; 48 h): 0.44 ± 0.13 µM; IC50 (human cancer cell lines): 0.49 µM; times more potent than compound I for inhibiting cell growth of cancer cells, on average (human cancer cell lines; ratio of average IC50 values): 18 times; times more potent than compound III for inhibiting cell growth of cancer cells, on average (human cancer cell lines; ratio of average IC50 values): 20 times; IC50 ([4]; HeLa, 48 h): 0.467 ± 0.104 µM; tolerability in mice (HT1080-luc tumors; [14]): well tolerated by the mice with no deaths and no overt signs of toxicity; cytotoxicity against HADF (normal) cells relative to doxorubicin I ([5]; 39.75/18.9): half as cytotoxic; IC50 ([5]; Homo sapiens): 39.8 µM; IC50 (MES-SA cells; MES-SA): 0.76 ± 0.16 µM; IC50 (GCT histiocytoma cells; 48 h): 0.175 ± 0.015 µM; IC50 (SW-872 liposarcoma cells; SW872, 48 h): 0.57 ± 0.23 µM; IC50 [6]: 3.51 ± 1.79 µM
3 | COc1cccc2c1C(=O)c1c(O)c3c(c(O)c1C2=O)C[C@@](O)(C(=O)CO)C[C@@H]3O[C@H]1C[C@H](N)[C@H](O)[C@H](C)O1 [Compound I, doxorubicin] | 10.3 ± 7.8 µM | – | 7.8 ± 1.8 µM | 0.43 ± 0.15 µM | 2 times | 9.06 µM | 0.605 ± 0.095 µM | – | – | – | 18.9 µM | 0.55 ± 0.08 µM | 0.279 ± 0.036 µM | 33.7 ± 7.5 µM | 14 times | –
4 | COc1cccc2c1C(=O)c1c(O)c3c(c(O)c1C2=O)C[C@@](O)(C(=O)CO)C[C@@H]3OC1CC(N2C=CCC2)C(O)C(C)O1 (stereo partly drawn) [compound II, 3′-deamino-3′-(2″-pyrroline-1″-yl)doxorubicin] | – | – | – | – | – | – | – | – | – | – | – | – | – | – | – | toxicity relative to doses required for an anticancer effect [7]: toxic or lethal at or below doses that are required for an anticancer effect; ability of DNA modifications to inhibit catalytic activity of topoisomerase II (topoisomerase II): does not differ significantly from that of doxorubicin; selectivity for cancer cells versus normal cells [8]: little or no selectivity
